Laboratory results from patent US9795644B2, “Reduction of in vitro genotoxicity of pollen extracts by removal of flavonoids” (STALLERGENES, priority 2009, dated 2017).

How the values were obtained:
[1] = system: mouse lymphoma thymidine kinase gene mutation; assay: MLA/TK test of quercetin by Meltz and MacGregor (4-h short term protocol), modelled by equation (2); type: cell-based; conditions: quercetin 0.83-0.86 μg/mL; from data of Meltz and MacGregor
Experimental: To our knowledge, quercetin is the only flavonoid aglycone that was studied in the MLA/TK test, namely in a work by Meltz and MacGregor who used a 4-h short term protocol (Mutat. Res. 1981; 88: 317-324).
The induction ratios that should result from those amounts was deduced from the data of Meltz and MacGregor. Such deduced induction ratios were then compared to the induction ratio actually observed.
The lowest concentration of quercetin tested by Meltz and MacGregor was 10 μg/mL. Therefore, to determine the ratio that should be obtained with the lowest concentration of 0.864 μg/mL or below, the relationship between (a) the concentrations of quercetin tested by Meltz and MacGregor and (b) the corresponding induction ratios they observed was mathematically modelled. Since those ratios started reaching a plateau at the first concentration tested, we choose to use a logarithmic function for such a modelization. Given that the ratio is necessarily of 1 for 0 μg/mL of mutagen (control), the logarithmic function will be of the form: y=a·ln(x+1)+1 (1)
Using the ratios obtained by Meltz and MacGregor for 10, 20 and 30 μg/mL of quercetin allows a mathematical modelization by the following equation with an excellent correlation coefficient (r=0.99): y=3.0822×ln(x+1)+1 (2).

[2] = other in vitro genotoxic tests; cited from earlier work
[3] = incubation at 37° C. under MLA/TK conditions, deglycosylation followed by reverse phase HPLC; type: physicochemical; conditions: 24 h at 37° C., in presence of grass pollen proteins; from peak areas
Experimental: Grass pollen flavonoids were first identified by reverse phase HPLC, according to their hydrophobicity. Reverse phase HPLC was performed on a Atlantis dC18 column, 4.6×250 mm, 5 μm, Waters, Milford, Mass., USA; with a gradient elution: 0.1% formic acid qsp water to 0.1% formic acid qsp acetonitrile in 30 min; flow rate: 1 mL/min; run time: 45 min; detection wavelength: 354 or 254 nm; injection volume 50 μL. Importantly, grass pollen extracts were diluted 5 times in methanol before analysis in order to solubilize both flavonoid glycosides and flavonoid aglycones, the latter being hardly soluble in water.
Analysis of samples was performed using the HPLC method described above for the detection of flavonoids.
As (a) the sum of all peaks areas was rather well conserved and (b) the decrease of a flavonoid diglucoside-corresponding peak was related to the increase or appearance of flavonoid monoglycoside and/or aglycone-corresponding peak(s), it could be considered that the ratio between the two peaks areas is equivalent to the molar ratio of the corresponding flavonoids. On this basis, the decrease in quercetin-diglucoside leaded to an equal increase in molecules of quercetin-monoglucoside and in molecules of quercetin aglycone.

Compound	induction ratio interpolated with equation (2) [1]	genotoxicity rank among flavonoid aglycones [2]	share deglycosylated into quercetin (aglycone) [3] [%]
O=c1c(O)c(-c2ccc(O)c(O)c2)oc2cc(O)cc(O)c12 [quercetin]	2.9	the most genotoxic flavonoid aglycone	–
O=c1c(O[C@@H]2O[C@H](CO)[C@@H](O)[C@H](O)[C@H]2O)c(-c2ccc(O[C@@H]3O[C@H](CO)[C@@H](O)[C@H](O)[C@H]3O)c(O)c2)oc2cc(O)cc(O)c12 [quercetin-diglucoside, quercetin-3,4′-diglucoside]	–	–	~20
